Read-outs that look alike come from different tables or passages of the source.
Target: T1, IRAK4 (Homo sapiens, UniProt Q9NWZ3)
T1 construct: Degradation of IRAK4 in OCI-LY10 was quantitatively measured using Meso Scale Discovery technology; endogenous in cells; host or cells: OCI-LY10
T1 sequence (Q9NWZ3 1-460): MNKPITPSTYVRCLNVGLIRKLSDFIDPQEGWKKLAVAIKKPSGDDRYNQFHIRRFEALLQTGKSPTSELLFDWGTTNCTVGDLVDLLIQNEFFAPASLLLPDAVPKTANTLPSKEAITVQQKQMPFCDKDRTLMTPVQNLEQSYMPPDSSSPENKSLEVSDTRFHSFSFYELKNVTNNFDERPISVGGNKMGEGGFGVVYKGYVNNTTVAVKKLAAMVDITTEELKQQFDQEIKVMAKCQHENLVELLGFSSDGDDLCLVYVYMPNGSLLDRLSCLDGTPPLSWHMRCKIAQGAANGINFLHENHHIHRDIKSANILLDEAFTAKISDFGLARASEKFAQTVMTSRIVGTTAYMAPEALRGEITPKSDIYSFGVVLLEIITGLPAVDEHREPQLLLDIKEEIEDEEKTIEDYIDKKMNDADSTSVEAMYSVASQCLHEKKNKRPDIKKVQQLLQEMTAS
Assay: IRAK4 MSD Degradation in OCI-LY10
Assay type: cell-based
Settings: OCI-LY10 cells, MSD
How it was run: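 OCI-LY10 cells exposed to 8-point 1:3 compound series (top 1 to 10 μM) for 4 to 24 h at 37 °C, 5% CO2. Lysate IRAK4 quantified by MSD sandwich immunoassay. DC50 from three-parameter logistic fit, binned A (<0.01 μM) to D (>0.2 μM or not tested).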

[1] = 4 hrs incubation, read-out: IRAK4 degradation in OCI-LY10 at 4 hrs: DC50
[2] = 24 hrs incubation, read-out: IRAK4 degradation in OCI-LY10 at 24 hrs: DC50

DC50 [1] [nM]	DC50 [2] [nM]	SMILES
10 to 100	> 200	C[C@@H]1CN(C[C@H]2CC[C@H](n3cc(NC(=O)c4cnn5ccc(N6C[C@@H]7C[C@H]6CO7)nc45)c(C(F)F)n3)CC2)CC[C@H]1OCC#Cc1cccc2c1n(C)c(=O)n2C1CCC(=O)NC1=O (stereo partly drawn) [I-48]
> 200	> 200	COc1nc(NC(=O)c2cccc(C(F)(F)F)n2)cc2cn([C@H]3CC[C@H](CN4CCN(c5cccc6c5n(C)c(=O)n6C5CCC(=O)NC5=O)CC4)CC3)nc12 (stereo partly drawn) [I-766]
> 200	< 10	Cn1c(=O)n(C2CCC(=O)NC2=O)c2cccc(C3CCN(C[C@H]4CC[C@H](n5cc6cc(NC(=O)c7cccc(C(F)F)n7)ccc6n5)CC4)CC3(F)F)c21 (stereo partly drawn) [I-613]
< 10	> 200	Cn1c(=O)n(C2CCC(=O)NC2=O)c2cccc(C#CCN3CCN(Cc4ccc(-n5cc(NC(=O)c6cnn7ccc(N8C[C@H]9C[C@@H]8CO9)nc67)c(C(F)F)n5)cc4)CC3)c21 (stereo partly drawn) [I-369]
> 200	< 10	C[C@@H]1CN(c2ccn3ncc(C(=O)Nc4cn([C@H]5CC[C@H](CN6CCN(CC#Cc7cccc8c7n(C)c(=O)n8C7CCC(=O)NC7=O)CC6)CC5)nc4C(F)F)c3n2)C[C@@H](C)O1 (stereo partly drawn) [I-431]
> 200	< 10	Cc1cc2nn([C@H]3CC[C@H](CN4CCC(c5cccc6c5n(C)c(=O)n6C5CCC(=O)NC5=O)C(F)C4)CC3)cc2cc1NC(=O)c1cccc(C(F)(F)F)n1 (stereo partly drawn) [I-550]
> 200	> 200	Cn1c(=O)n(C2CCC(=O)NC2=O)c2cccc(C#CCN3CCN(C[C@H]4CC[C@H](n5cc(NC(=O)c6cccc(C#N)n6)c(C(C)(C)O)n5)CC4)CC3)c21 (stereo partly drawn) [I-263]
> 200	> 200	Cc1nn([C@H]2CC[C@H](CN3CCN(c4cccc5c4n(C)c(=O)n5C4CCC(=O)NC4=O)CC3)CC2)cc1NC(=O)c1cnn2cc(N(C)C)cnc12 (stereo partly drawn) [I-216]
10 to 100	< 10	C[C@H]1CN(C[C@H]2CC[C@H](n3cc(NC(=O)c4cnn5ccc(N6C[C@H]7C[C@@H]6CO7)nc45)c(C(F)F)n3)CC2)CC[C@@H]1OCC#Cc1cccc2c1n(C)c(=O)n2C1CCC(=O)NC1=O (stereo partly drawn) [I-25]
> 200	> 200	Cn1c(=O)n(C2CCC(=O)NC2=O)c2cccc([C@H]3C[C@@H]3CN3CCN(C[C@H]4CC[C@H](n5cc(NC(=O)c6cnn7ccc(N8C[C@H]9CC8CO9)nc67)c(C(F)F)n5)CC4)CC3)c21 (stereo partly drawn) [I-573]
> 200	> 200	Cn1c(=O)n(C2CCC(=O)NC2=O)c2cccc(N3CC(O[C@@H]4CCN(C[C@H]5CC[C@H](n6cc(NC(=O)c7cnn8ccc(N9C[C@H]%10C[C@@H]9CO%10)nc78)c(C(F)F)n6)CC5)C[C@H]4F)C3)c21 (stereo partly drawn) [I-582]
> 200	> 200	COc1cc2nn([C@H]3CC[C@H](CN4CCC5(CC4)CCN(c4c(F)ccc6c4n(C)c(=O)n6C4CCC(=O)NC4=O)CC5)CC3)cc2cc1NC(=O)c1cncc(C#N)c1 (stereo partly drawn) [I-95]
> 200	> 200	Cn1c(=O)n(C2CCC(=O)NC2=O)c2cccc(C#CCN3CCN(C[C@H]4CC[C@H](n5cc(NC(=O)c6cnn7ccc(N8CC9(CCOC9)C8)nc67)c(C(F)F)n5)CC4)CC3)c21 (stereo partly drawn) [I-317]
> 200	< 10	Cn1c(=O)n(C2CCC(=O)NC2=O)c2cccc(C3CN([C@@H]4CCN(C[C@H]5CC[C@H](n6cc(NC(=O)c7cnn8ccc(N9C[C@H]%10C[C@@H]9CO%10)nc78)c(C(F)F)n6)CC5)C[C@@H]4F)C3)c21 (stereo partly drawn) [I-673]
> 200	10 to 100	COc1cc2nn([C@H]3CC[C@H](CN4CCC5(CC4)CCN(c4cccc6c(C7CCC(=O)NC7=O)cccc46)CC5)CC3)cc2cc1NC(=O)c1cncc(C#N)c1 (stereo partly drawn) [I-252]
100 to 200	> 200	Cn1c(=O)n(C2CCC(=O)NC2=O)c2cccc(C#CCO[C@@H]3CCCN(C[C@H]4CC[C@H](n5cc(NC(=O)c6cnn7ccc(N8C[C@H]9C[C@@H]8CO9)nc67)c(C(F)F)n5)CC4)C3)c21 (stereo partly drawn) [I-127]
< 10	> 200	COc1cc2nn([C@H]3CC[C@H](CN4CCC5(CC4)CCN(c4cccc6c4n(C)c(=O)n6C4CCC(=O)NC4=O)CC5)CC3)cc2cc1NC(=O)c1nn(C)cc1Cl (stereo partly drawn) [I-157]

DC50 [1] [nM]	DC50 [2] [nM]	SMILES
> 200	> 200	COc1cc2nn([C@H]3CC[C@H](CN(C)C4CCN(c5cccc6c5n(C)c(=O)n6C5CCC(=O)NC5=O)CC4(F)F)CC3)cc2cc1NC(=O)c1cccc(C(F)(F)F)n1 (stereo partly drawn) [I-475]
> 200	< 10	Cn1c(=O)n(C2CCC(=O)NC2=O)c2cccc([C@H]3CCN(C[C@H]4CC[C@H](n5cc6cc(NC(=O)c7cccc(C(F)(F)F)n7)ccc6n5)CC4)C[C@@H]3O)c21 (stereo partly drawn) [I-707]
> 200	> 200	Cn1c(=O)n(C2CCC(=O)NC2=O)c2cccc(CC[C@@H]3CN(Cc4ccc(-n5cc(NC(=O)c6cnn7ccc(N8C[C@H]9C[C@@H]8CO9)nc67)c(C(F)F)n5)cc4)CCO3)c21 (stereo partly drawn) [I-396]
> 200	> 200	Cn1c(=O)n(C2CCC(=O)NC2=O)c2cccc(C3CN([C@H]4CCN([C@H]5CC[C@H](n6cc(NC(=O)c7cnn8ccc(N9C[C@H]%10C[C@@H]9CO%10)nc78)c(C(F)F)n6)CC5)CC4(F)F)C3)c21 (stereo partly drawn) [I-750]
10 to 100	> 200	Cn1c(=O)n(C2CCC(=O)NC2=O)c2cccc(N3CC4(CCN(Cc5ccc(-n6cc(NC(=O)c7cnn8ccc(N9C[C@H]%10C[C@@H]9CO%10)nc78)c(C(F)F)n6)cc5)CC4)C3)c21 (stereo partly drawn) [I-400]
> 200	> 200	O=C1CCN(c2cncc3c(C4CCN(C[C@H]5CC[C@H](n6cc7cc(NC(=O)c8cccc(C(F)(F)F)n8)ccc7n6)CC5)CC4(F)F)cccc23)C(=O)N1 (stereo partly drawn) [I-469]
< 10	> 200	Cn1c(=O)n(C2CCC(=O)NC2=O)c2cccc(N3CCC(N4CCN(C[C@H]5CC[C@H](n6cc(NC(=O)c7cnn8ccc(N9C[C@H]%10C[C@@H]9CO%10)nc78)c(C(F)F)n6)CC5)CC4)CC3)c21 (stereo partly drawn) [I-69]
> 200	> 200	Cn1c(=O)n(C2CCC(=O)NC2=O)c2cccc(C#CCN3CCN(C[C@H]4CC[C@H](n5cc(NC(=O)c6cncc(C#N)c6)c(C(F)F)n5)CC4)CC3)c21 (stereo partly drawn) [I-265]
> 200	< 10	Cn1c(=O)n(C2CCC(=O)NC2=O)c2cccc(N3CC(CO[C@@H]4CCN(C[C@H]5CC[C@H](n6cc(NC(=O)c7cnn8ccc(N9C[C@H]%10CC9CO%10)nc78)c(C(F)F)n6)CC5)C[C@H]4F)C3)c21 (stereo partly drawn) [I-586]
> 200	> 200	Cc1cccc(C(=O)Nc2ccc3nn([C@H]4CC[C@H](CN5CC[C@H](c6cccc7c6n(C)c(=O)n7C6CCC(=O)NC6=O)[C@H](F)C5)CC4)cc3c2)n1 (stereo partly drawn) [I-623]
> 200	> 200	Cn1c(=O)n(C2CCC(=O)NC2=O)c2cccc(C3=CCN(C[C@H]4CC[C@H](n5cc6cc(NC(=O)c7cccc(C(F)(F)F)n7)c(C#N)cc6n5)CC4)CC3(F)F)c21 (stereo partly drawn) [I-455]
> 200	< 10	COc1cc2nn([C@H]3CC[C@H](CN4CCC5(CC4)CCN(c4cccc6c4n(C)c(=O)n6C4CCC(=O)NC4=O)CC5)CC3)cc2cc1NC(=O)c1cc(F)cc(C#N)c1 (stereo partly drawn) [I-247]
> 200	< 10	Cn1c(=O)n(C2CCC(=O)NC2=O)c2cccc(C#CCN3CCN(C[C@H]4CC[C@H](n5cc(NC(=O)c6cnn7ccc(N8CCCOCC8)nc67)c(C(F)F)n5)CC4)CC3)c21 (stereo partly drawn) [I-291]
> 200	> 200	COc1nc(NC(=O)c2cccc(C(F)(F)F)n2)cc2cn([C@H]3CC[C@H](CN4CC[C@@H](c5cccc6c5n(C)c(=O)n6C5CCC(=O)NC5=O)[C@H](F)C4)CC3)nc12 (stereo partly drawn) [I-773]
> 200	< 10	Cn1c(=O)n(C2CCC(=O)NC2=O)c2cccc(C#CCN3CCN(C[C@H]4CC[C@H](n5cc(NC(=O)c6cnn7ccc(N8CC9(CC9)C8)nc67)c(C(F)F)n5)CC4)CC3)c21 (stereo partly drawn) [I-226]
< 10	> 200	C[C@H]1CN(C[C@H]2CC[C@H](n3cc(NC(=O)c4cnn5ccc(N6C[C@H]7C[C@@H]6CO7)nc45)c(C(F)F)n3)CC2)CC[C@@H]1OCC#Cc1cccc2c1n(C)c(=O)n2[C@H]1CCC(=O)NC1=O (single isomer, unassigned) [I-67]

Source: patent publication US12091411B2, “IRAK degraders and uses thereof” (Kymera Therapeutics, Inc., priority 2022, dated 2024)
